Test results published in PubChem BioAssay AID1963858 (Molecular Pharmacology Branch, DTP, NCI, 2024).

System: HOP-62 multicell spheroids with HUVEC/MSC, viability
Test: Anticancer human tumor HOP-62 cell line growth inhibition [KRAS2];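 note: viability read after a week of compound exposure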;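 for viability, T/C: 100% = DMSO vehicle-treated spheroids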
Details: for viability, T/C: stronger effect = lower value
Source text: Multicellular complex tumor spheroid response to RAS pathway inhibitors in combination with a targeted agents in patient-derived cell lines with oncogenic KRAS variants from multiple cancer types
A high-throughput screen of multi-cell type tumor spheroids was designed to identify active combinations of targeted small molecules and KRAS pathway inhibitors. Complex spheroids include a stromal component modeled by human endothelial cells (HUVEC) and fibroblasts modeled by human mesenchymal stem cells (MSCs). The concentration ranges selected for each drug and investigational agent were based upon clinically achievable concentrations if the clinical Cmax of the agent was known.
Compounds. The drugs and investigational agents: BI-3406 (NSC825286), BAY-293 (NSC824723), batoprotafib (TNO155; NSC825523), sotorasib (AMG 510; NSC818433), MRTX1257 (NSC819558), elimusertib (BAY 1895344; NSC800525), molibresib (GSK525762; NSC774829), temuterkib (LY3214996; NSC803410), venetoclax (NSC766270), alisertib (NSC759677), olaparib (NSC753686), talazoparib (NSC767125), erdafitinib (NSC781556), ipatasertib (NSC767898), cabozantinib (NSC761068), nintedanib (NSC756659), abemaciclib (NSC768073), docetaxel (NSC628503), trametinib (NSC758246), and sapanisertib (NSC764658) were obtained from the National Cancer Institute (NCI) Developmental Therapeutics Program Chemical Repository. The FDA-approved anticancer drug set is available from the Developmental Therapeutics Program. […] The stock solutions were prepared in dimethyl sulfoxide (DMSO, Sigma-Aldrich, St. Louis, MO, cat. D2650) at 800-fold the tested concentration and stored at -70 degrees C prior to their use. All drugs and investigational agents were tested over a range starting from a high concentration at or near the clinical Cmax and decreasing in half-log increments. If the clinical Cmax for an agent had not been determined, the highest concentration tested was 10 microM.
Cell Culture. All cells were maintained in an incubator at 37 degrees C and 5% CO2 with 95% humidity. The PDC lines were cultured according to standard operating procedures established by the NCI PDMR (https://pdmr.cancer.gov/sops/default.htm). Briefly, all PDCs were thawed and cultured in Matrigel-coated flasks prepared with a working solution of 1X Ham's F-12 nutrient mix, without supplementation (Invitrogen, Waltham, MA, cat. 11765054), 100 U/mL penicillin-streptomycin (Invitrogen, cat. 15140122), and 2.5% Matrigel (Corning Inc., Corning, NY, cat. 354248) for the first three passages. All PDCs were cultured in complete DMEM/F-12 media containing advanced DMEM/F-12 (Invitrogen, cat. 12634028), 4.9% defined fetal bovine serum, heat inactivated (HyClone Laboratories Inc., Logan, UT, cat. SH30070.03HI), 389 ng/mL hydrocortisone (Sigma-Aldrich, cat. H4001), 9.7 ng/mL human EGF recombinant protein (Invitrogen, cat. PHG0313), 23.4 microg/mL adenine (Sigma-Aldrich, cat. A2786), 97.3 U/mL penicillin-streptomycin (Invitrogen, cat. 15140122), 1.9 mM L-glutamine (Invitrogen, cat. 25030081), and 9.7 microM Y-27632 dihydrochloride (Tocris Bioscience, Bristol, United Kingdom, cat. 1254). The PDCs were cultured in complete DMEM/F12 media without 9.7 microM Y-27632 dihydrochloride for at least two passages prior to the screen. The established cell line HOP-62 was cultured in RPMI 1640 medium, HEPES (Invitrogen, cat. 22400105) with 10% defined fetal bovine serum (HyClone Laboratories Inc., cat. SH30070.03) and 2 mM L-glutamine (Invitrogen, cat. 25030081). The pooled donor HUVEC were cultured in endothelial cell growth medium 2 (PromoCell, Heidelberg, Germany, cat. C-22011) and the hMSC were cultured in mesenchymal stem cell growth medium 2 (PromoCell, cat. C-28009). For all experiments, HUVEC and hMSC were used at passages </=5, while the malignant cell lines were used at passages </=15. […]

[1] = curve of first compound, second compound 0.1 µM
[2] = curve of first compound, second compound 0.316 µM
[3] = curve of first compound, second compound 1 µM
[4] = curve of first compound, second compound 3.16 µM
[5] = curve of first compound, second compound 10 µM
[6] = second compound 0.1 µM, first compound 0.000316 µM
[7] = second compound 0.1 µM, first compound 0.001 µM
[8] = second compound 0.1 µM, first compound 0.00316 µM
[9] = second compound 0.1 µM, first compound 0.01 µM
[10] = second compound 0.1 µM, first compound 0.0316 µM
[11] = second compound 0.1 µM, first compound 0.1 µM
[12] = second compound 0.316 µM, first compound 0.000316 µM
[13] = second compound 0.316 µM, first compound 0.001 µM
[14] = second compound 0.316 µM, first compound 0.00316 µM
[15] = second compound 0.316 µM, first compound 0.01 µM
[16] = second compound 0.316 µM, first compound 0.0316 µM
[17] = second compound 0.316 µM, first compound 0.1 µM
[18] = second compound 1 µM, first compound 0.000316 µM
[19] = second compound 1 µM, first compound 0.001 µM
[20] = second compound 1 µM, first compound 0.00316 µM
[21] = second compound 1 µM, first compound 0.01 µM
[22] = second compound 1 µM, first compound 0.0316 µM
[23] = second compound 1 µM, first compound 0.1 µM
[24] = second compound 3.16 µM, first compound 0.000316 µM
[25] = second compound 3.16 µM, first compound 0.001 µM
[26] = second compound 3.16 µM, first compound 0.00316 µM
[27] = second compound 3.16 µM, first compound 0.01 µM
[28] = second compound 3.16 µM, first compound 0.0316 µM
[29] = second compound 3.16 µM, first compound 0.1 µM
[30] = second compound 10 µM, first compound 0.0316 µM
[31] = second compound 10 µM, first compound 0.1 µM

CC(C)n1nc(-c2ccc3oc(N)nc3c2)c2c(N)ncnc21 + CNCc1ccccc1-c1csc(C(C)Nc2nc(C)nc3cc(OC)c(OC)cc23)c1
IC50 [1]: 4.45 nM | IC50 [2]: 2.24 nM | IC50 [3]: 1.78 nM | IC50 [4]: < 0.316 nM | IC50 [5]: < 0.316 nM | viability, T/C [6]: 113% | viability, T/C [7]: 86.7% | viability, T/C [8]: 57.9% | viability, T/C [9]: 32.5% | viability, T/C [10]: 22.2% | viability, T/C [11]: 15.9% | viability, T/C [12]: 89.5% | viability, T/C [13]: 69.2% | viability, T/C [14]: 40.2% | viability, T/C [15]: 27.9% | viability, T/C [16]: 19.5% | viability, T/C [17]: 15.9% | viability, T/C [18]: 75.9% | viability, T/C [19]: 63.1% | viability, T/C [20]: 35.3% | viability, T/C [21]: 28.9% | viability, T/C [22]: 17.3% | viability, T/C [23]: 14.1% | viability, T/C [24]: 0.36% | viability, T/C [25]: 0.49% | viability, T/C [26]: 0.36% | viability, T/C [27]: 0.46% | viability, T/C [28]: 2.66% | viability, T/C [29]: 0.67% | viability, T/C (second compound 10 µM, first compound 0.000316 µM): 0.46% | viability, T/C (second compound 10 µM, first compound 0.001 µM): 0.4% | viability, T/C (second compound 10 µM, first compound 0.00316 µM): 0.42% | viability, T/C (second compound 10 µM, first compound 0.01 µM): 0.42% | viability, T/C [30]: 0.38% | viability, T/C [31]: 0.52%

CC(=O)OC12COC1CC(O)C1(C)C(=O)C(O)C3=C(C)C(OC(=O)C(O)C(NC(=O)OC(C)(C)C)c4ccccc4)CC(O)(C(OC(=O)c4ccccc4)C21)C3(C)C (stereo not given)
viability, T/C (compound 0.01 µM): 41% [middle of 5 runs] | viability, T/C (compound 0.0316 µM): 36.9% [middle of 5 runs] | viability, T/C (compound 0.1 µM): 36.1% [middle of 5 runs] | viability, T/C (compound 0.316 µM): 39.6% [middle of 5 runs] | viability, T/C (compound 1 µM): 42% [middle of 5 runs] | viability, T/C (compound 3.16 µM): 42.9% [middle of 5 runs] | IC50 (curve of compound): < 10 nM

CC(C)NCC(C(=O)N1CCN(c2ncnc3c2C(C)CC3O)CC1)c1ccc(Cl)cc1 (stereo not given) + COc1cc2nc(C)nc(NC(C)c3cc(N)cc(C(F)(F)F)c3)c2cc1OC1CCOC1
IC50 [1]: 649 nM | IC50 [2]: 412 nM | IC50 [3]: 222 nM | IC50 [4]: 416 nM | IC50 [5]: < 31.6 nM | viability, T/C [10]: 101% | viability, T/C [11]: 85.5% | viability, T/C (second compound 0.1 µM, first compound 0.316 µM): 73% | viability, T/C (second compound 0.1 µM, first compound 1 µM): 38.3% | viability, T/C (second compound 0.1 µM, first compound 3.16 µM): 9.92% | viability, T/C (second compound 0.1 µM, first compound 10 µM): 6.97% | viability, T/C [16]: 92.5% | viability, T/C [17]: 85.4% | viability, T/C (second compound 0.316 µM, first compound 0.316 µM): 58.7% | viability, T/C (second compound 0.316 µM, first compound 1 µM): 21.6% | viability, T/C (second compound 0.316 µM, first compound 3.16 µM): 7.46% | viability, T/C (second compound 0.316 µM, first compound 10 µM): 6.79% | viability, T/C [22]: 91% | viability, T/C [23]: 67.8% | viability, T/C (second compound 1 µM, first compound 0.316 µM): 42.8% | viability, T/C (second compound 1 µM, first compound 1 µM): 20% | viability, T/C (second compound 1 µM, first compound 3.16 µM): 5.76% | viability, T/C (second compound 1 µM, first compound 10 µM): 3.7% | viability, T/C [28]: 63.1% | viability, T/C [29]: 59.1% | viability, T/C (second compound 3.16 µM, first compound 0.316 µM): 64% | viability, T/C (second compound 3.16 µM, first compound 1 µM): 11.2% | viability, T/C (second compound 3.16 µM, first compound 3.16 µM): 6.02% | viability, T/C (second compound 3.16 µM, first compound 10 µM): 5.53% | viability, T/C [30]: 49.1% | viability, T/C [31]: 33.8% | viability, T/C (second compound 10 µM, first compound 0.316 µM): 23.7% | viability, T/C (second compound 10 µM, first compound 1 µM): 10.7% | viability, T/C (second compound 10 µM, first compound 3.16 µM): 8.2% | viability, T/C (second compound 10 µM, first compound 10 µM): 5.6%

COc1cc2nccc(Oc3ccc(NC(=O)C4(C(=O)Nc5ccc(F)cc5)CC4)cc3)c2cc1OC
viability, T/C (compound 0.0316 µM): 96.9% [middle of 5 runs] | viability, T/C (compound 1 µM): 99.2% [middle of 5 runs] | viability, T/C (compound 3.16 µM): 78.9% [middle of 5 runs]

CC(=O)Nc1cccc(-n2c(=O)n(C3CC3)c(=O)c3c(Nc4ccc(I)cc4F)n(C)c(=O)c(C)c32)c1 + C=CC(=O)N1CCN(c2nc(OCC3CCCN3C)nc3c2CCN(c2cccc4cccc(C)c24)C3)CC1CC#N
IC50 (curve of first compound, second compound 0.0316 µM): 1.49 nM | IC50 [1]: 1.01 nM | IC50 [2]: 0.406 nM | IC50 [3]: < 0.1 nM | IC50 [4]: < 0.1 nM | viability, T/C (second compound 0.0316 µM, first compound 0.0001 µM): 83.2% | viability, T/C (second compound 0.0316 µM, first compound 0.000316 µM): 75% | viability, T/C (second compound 0.0316 µM, first compound 0.001 µM): 56.2% | viability, T/C (second compound 0.0316 µM, first compound 0.00316 µM): 38.9% | viability, T/C (second compound 0.0316 µM, first compound 0.01 µM): 23.4% | viability, T/C (second compound 0.0316 µM, first compound 0.0316 µM): 25.5% | viability, T/C (second compound 0.1 µM, first compound 0.0001 µM): 64.8% | viability, T/C [6]: 60.9% | viability, T/C [7]: 50.5% | viability, T/C [8]: 27.4% | viability, T/C [9]: 19.4% | viability, T/C [10]: 24.3% | viability, T/C (second compound 0.316 µM, first compound 0.0001 µM): 52.3% | viability, T/C [12]: 53.6% | viability, T/C [13]: 40% | viability, T/C [14]: 18.4% | viability, T/C [15]: 15.7% | viability, T/C [16]: 17.3% | viability, T/C (second compound 1 µM, first compound 0.0001 µM): 34.4% | viability, T/C [18]: 28.1% | viability, T/C [19]: 18% | viability, T/C [20]: 15% | viability, T/C [21]: 12.5% | viability, T/C [22]: 12.5% | viability, T/C (second compound 3.16 µM, first compound 0.0001 µM): 18.2% | viability, T/C [24]: 1.3% | viability, T/C [25]: 9.7% | viability, T/C [26]: 12.7% | viability, T/C [27]: 1.72% | viability, T/C [28]: 1.33%
